From patent US11512053B2, “Arginine methyltransferase inhibitors and uses thereof” (priority 2013, dated 2022)
pIC50: −log10 of the molar value. Like-named read-outs stand apart in the source and are kept apart here.

Legend:
[1] = target: full-length human PRMT6 (Flag- and His-tagged) (Homo sapiens, UniProt Q96LA8); experiment: PRMT6 Biochemical Assay (3H-SAM Flashplate, peptide substrate); details: read-out: Biochemical IC50 PRMT6
Procedure, shortened: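 Flag/His-tagged full-length human PRMT6 (1 nM) preincubated with compound 30 min at room temperature in Bicine pH 7.6 buffer, then reaction started with 3H-SAM 200 nM plus unlabeled SAM 250 nM and biotinylated H4 36-50 peptide (K44me1) 75 nM; 2% DMSO. Quenched with 400 uM cold SAM; labeled peptide captured on streptavidin Flashplate, counted; % inhibition vs DMSO and 1 mM SAH controls fit by 3- or 4-parameter curve.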

[2] = target: full-length human PRMT1 isoform 1 (GST-tagged) (Homo sapiens, UniProt Q99873); experiment: PRMT1 Biochemical Assay (3H-SAM Flashplate, peptide substrate)
From the text: General Materials. S-adenosylmethionine (SAM), S-adenosylhomocysteine (SAH), bicine, Tween20, dimethylsulfoxide (DMSO), bovine skin gelatin (BSG), and Tris(2-carboxyethyl)phosphine hydrochloride solution (TCEP) were purchased from Sigma-Aldrich at the highest level of purity possible. ^3H-SAM was purchase from American Radiolabeled Chemicals with a specific activity of 80 Ci/mmol. 384-well streptavidin Flashplates were purchased from PerkinElmer.
Protein Expression. Recombinant baculovirus were generated according to Bac-to-Bac kit instructions (Life Technologies). […] Infections were carried out at 27° C. for 48 hours, harvested by centrifugation, and stored at −80° C. for purification.
Protein Purification. […] GST-tagged PRMT1 was eluted with 50 mM Tris, 2 mM glutathione, pH 7.8, dialysed in buffer A and concentrated to 1 mg/mL.
General Procedure for PRMT1 Enzyme Assays on Peptide Substrates. The assays were all performed in a buffer consisting of 20 mM Bicine (pH=7.6), 1 mM TCEP, 0.005% BSG, and 0.002% Tween 20, prepared on the day of use. […] DMSO (1 ul) was added to Columns 11, 12, 23, 24, rows A-H for the maximum signal control and 1 ul of SAH, a known product and inhibitor of PRMT1, was added to columns 11, 12, 23, 24, rows I-P for the minimum signal control. A cocktail (40 ul) containing the PRMT1 enzyme was added by Multidrop Combi (Thermo-Fisher). The compounds were allowed to incubate with PRMT1 for 30 min at room temperature, then a cocktail (10 ul) containing SAM and peptide was added to initiate the reaction (final volume=51 ul). […] The assays were stopped by the addition of non-radiolabeled SAM (10 ul) to a final concentration of 300 uM, which dilutes the ^3H-SAM to a level where its incorporation into the peptide substrate is no longer detectable. 50 ul of the reaction in the 384-well polypropylene plate was then transferred to a 384-well Flashplate and the biotinylated peptides were allowed to bind to the streptavidin surface for at least 1 hour before being washed once with 0.1% Tween20 in a Biotek ELx405 plate washer. The plates were then read in a PerkinElmer TopCount plate reader to measure the quantity of ^3H-labeled peptide bound to the Flashplate surface, measured as disintegrations per minute (dpm) or alternatively, referred to as counts per minute (cpm).
Where dpm=disintegrations per minute, cmpd=signal in assay well, and min and max are the respective minimum and maximum signal controls.
Where top and bottom are the normally allowed to float, but may be fixed at 100 or 0 respectively in a 3-parameter fit. The Hill Coefficient normally allowed to float but may also be fixed at 1 in a 3-parameter fit. Y is the % inhibition and X is the compound concentration.

[3] = single experiment or average of multiple experiments

Sequence of full-length human PRMT6 (Flag- and His-tagged) (Q96LA8 with tags, fused parts or gaps): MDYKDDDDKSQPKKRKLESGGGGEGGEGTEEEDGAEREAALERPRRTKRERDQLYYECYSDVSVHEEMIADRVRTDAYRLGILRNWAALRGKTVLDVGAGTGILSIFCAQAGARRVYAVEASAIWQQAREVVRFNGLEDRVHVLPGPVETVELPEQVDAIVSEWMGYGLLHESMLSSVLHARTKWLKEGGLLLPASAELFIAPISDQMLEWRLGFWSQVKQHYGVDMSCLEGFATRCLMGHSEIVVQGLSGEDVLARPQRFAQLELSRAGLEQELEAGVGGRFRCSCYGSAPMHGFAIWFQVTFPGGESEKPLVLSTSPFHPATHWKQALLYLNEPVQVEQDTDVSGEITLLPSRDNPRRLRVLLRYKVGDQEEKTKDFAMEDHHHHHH
Sequence of full-length human PRMT1 isoform 1 (GST-tagged) (Q99873 with tags, fused parts or gaps): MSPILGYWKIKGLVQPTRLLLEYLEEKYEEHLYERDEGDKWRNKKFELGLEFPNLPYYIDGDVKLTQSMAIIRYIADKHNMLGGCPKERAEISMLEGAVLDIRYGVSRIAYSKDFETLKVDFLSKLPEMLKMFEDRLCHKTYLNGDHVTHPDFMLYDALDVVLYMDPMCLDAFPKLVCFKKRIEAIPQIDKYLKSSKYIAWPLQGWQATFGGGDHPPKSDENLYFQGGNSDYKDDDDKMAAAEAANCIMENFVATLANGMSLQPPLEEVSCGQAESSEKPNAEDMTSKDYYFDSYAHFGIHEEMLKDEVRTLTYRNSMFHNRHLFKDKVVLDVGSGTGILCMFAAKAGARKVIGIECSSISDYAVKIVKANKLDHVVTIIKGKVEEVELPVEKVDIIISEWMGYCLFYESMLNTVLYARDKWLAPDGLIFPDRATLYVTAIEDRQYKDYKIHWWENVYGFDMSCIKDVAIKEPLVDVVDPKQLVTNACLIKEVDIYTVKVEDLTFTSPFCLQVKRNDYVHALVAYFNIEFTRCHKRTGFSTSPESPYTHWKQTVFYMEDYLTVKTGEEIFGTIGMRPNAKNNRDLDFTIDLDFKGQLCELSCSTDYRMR

| SMILES | pIC50 [1] | pIC50 [1, 3] | pIC50 [2] | pIC50 [2, 3] |
| --- | --- | --- | --- | --- |
| CNCCN(C)Cc1c[nH]nc1[C@H]1CC[C@H](OCCOc2ccc(OC)cc2)CC1 [Compound 186] | 6.00 to 7.00 | 6.97 | 6.00 to 7.00 | 6.96 |
| CNCCN(C)Cc1c[nH]nc1C1CCC(C)(C)C(O)C1 (stereo not drawn) [Compound 185, 2,2-dimethyl-5-[4-({methyl[2-(methylamino)ethyl]amino}methyl)-1H-pyrazol-3-yl]cyclohexan-1-ol] | > 7.00 | 7.45 | > 7.00 | 7.85 |
| CNCCN(C)Cc1c[nH]nc1C1CCC2(CC1)NC(=O)NC2=O (stereo not drawn) [Compound 175] | > 7.00 | 7.42 | > 7.00 | 7.88 |
| CNCCN(C)Cc1c[nH]nc1C1CCC2(CC1)NC(=O)N(C)C2=O (stereo not drawn) [Compound 170] | > 7.00 | 7.24 | > 7.00 | 7.68 |
| CNCCN(C)Cc1c[nH]nc1[C@H]1CC[C@]2(CC1)CC(=O)N(CC(C)C)C2 [Compound 155] | > 7.00 | 7.22 | > 7.00 | 7.50 |
| CCOC1CC(OCC)CC(c2n[nH]cc2CN(C)CCNC)C1 (stereo not drawn) [Compound 132] | 5.00 to 5.52 | 5.26 | 6.00 to 7.00 | 6.20 |
| CNCCN(C)Cc1c[nH]nc1C1CCC2(CC1)C(=O)NC(=O)N2C (stereo not drawn) [Compound 161] | > 7.00 | 7.14 | > 7.00 | 7.59 |
| CCOCC1CC(COCC)CC(c2n[nH]cc2CN(C)CCNC)C1 (stereo not drawn) [Compound 119] | 5.52 to 6.00 | 5.56 | 6.00 to 7.00 | 6.91 |
| CNCCN(C)Cc1c[nH]nc1[C@H]1CC[C@@H](N(CC2CCOCC2)C(=O)CC(C)C)CC1 [Compound 107] | 6.00 to 7.00 | 6.89 | > 7.00 | 7.67 |
| CNCCN(C)Cc1c[nH]nc1[C@H]1CC[C@]2(CCOC2)CC1 [Compound 142] | > 7.00 | 7.70 | > 7.00 | 8.14 |
| CCC(=O)N(CC1CCOCC1)[C@H]1CC[C@H](c2n[nH]cc2CN(C)CCNC)CC1 [Compound 109] | 6.00 to 7.00 | 6.91 | > 7.00 | 7.57 |
| CNCCN(C)Cc1c[nH]nc1[C@H]1CC[C@]2(CCN(Cc3ccc(OCCOC)cc3)C2=O)CC1 [Compound 111] | > 7.00 | 7.34 | > 7.00 | 7.65 |
| CNCCN(C)Cc1c[nH]nc1C1CCC2(CC1)C(=O)N(C)C(=O)N2C (stereo not drawn) [Compound 171] | > 7.00 | 7.39 | > 7.00 | 7.83 |
| CNCCN(C)Cc1c[nH]nc1C1CCC2(CC1)OCCCO2 [Compound 160] | 6.00 to 7.00 | 6.95 | > 7.00 | 7.66 |
| CNCCN(C)Cc1c[nH]nc1[C@H]1CC[C@@H](COC)CC1 [Compound 166] | > 7.00 | 7.31 | > 7.00 | 7.74 |
| CCN1C(=O)N(C)CC12CCC(c1n[nH]cc1CN(C)CCNC)CC2 (stereo not drawn) [Compound 162] | > 7.00 | 7.21 | > 7.00 | 7.41 |

More lines, now with the values ahead:

| pIC50 [1] | pIC50 [1, 3] | pIC50 [2] | pIC50 [2, 3] | SMILES |
| --- | --- | --- | --- | --- |
| > 7.00 | 7.80 | > 7.00 | 8.24 | CNCCN(C)Cc1c[nH]nc1C1CCC2(CCOCC2)CC1 [Compound 178] |
| > 7.00 | 7.20 | > 7.00 | 7.05 | CNCCN(C)Cc1c[nH]nc1C1CCC(=O)N(Cc2ccccc2)C1 (stereo not drawn) [Compound 115] |
| > 7.00 | 8.09 | > 7.00 | 8.32 | CC[C@H]1CC[C@H](c2n[nH]cc2CN(C)CCNC)CC1 [Compound 148] |
| > 7.00 | 7.35 | > 7.00 | 7.70 | CCOC1CC2(CCC(c3n[nH]cc3CN(C)CCNC)CC2)CC1OCC (stereo not drawn) [Compound 168] |
| 6.00 to 7.00 | 7.00 | > 7.00 | 7.70 | CNCCN(C)Cc1c[nH]nc1[C@H]1CC[C@H](O)C2(CCCCC2)C1 (racemic) [Compound 184, (1S,4S)-4-[4-({methyl[2-(methylamino)ethyl]amino}methyl)-1H-pyrazol-3-yl] spiro[5.5]undecan-1-ol] |
| > 7.00 | 7.65 | > 7.00 | 7.52 | CNCCN(C)Cc1c[nH]nc1[C@H]1CC[C@H](OC2CCCCC2)CC1 [Compound 139] |
| > 7.00 | 8.14 | > 7.00 | 8.54 | CNCCN(C)Cc1c[nH]nc1C1CCC(OCCOc2ccccc2)CC1 (stereo not drawn) [Compound 136] |
| > 7.00 | 7.75 | > 7.00 | 8.19 | CNCCN(C)Cc1c[nH]nc1C1CCC(CC(C)C)CC1 (stereo not drawn) [Compound 169] |
